Assay results from patent US20050131077A1, “Preventing or reducing the adhesion of microorganisms with phytanetriol” (priority 2003, published 2005).

Tested on: Staphylococcus aureus
Test: Microbial antiadhesion test on reconstructed epidermis
Assay type: cell-based
Description: Before bacterial adhesion, the reconstructed epidermis is placed in contact for 2 hours with the composition of Example 1 at 37° C. 1 ml of bacterial suspension of Staphylococcus aureus at a concentration of 10^7 microorganisms/ml in Tryptone salt is then added thereto. After incubation for 24 hours at 37° C., the bacterial suspension is emptied out and five rinsings are performed with 1 ml of sterile distilled water. The reconstructed epidermis detached from its support is then ground using a processor in 18 ml of Tryptone salt. […] The adherent and viable cells are then counted. […]
A mixture of bacteria/test product, in the same ratio as in the antiadhesion test, is brought into contact for 24 hours at 37° C. The microorganisms are counted by tenfold dilution in Tryptone salt and inoculation, using a scraper, of 100 μl on Trypticase soybean agar. The colonies are counted after incubation for 24 hours at 37° C.
The quantitative results correspond to a reduction in the decimal logarithm of the mean number of viable Staphylococcus aureus adherent on the reconstructed epidermis after treatment with the test composition or test molecules, relative to the decimal logarithm of the mean number of viable Staphylococcus aureus adherent on the reconstructed epidermis after treating with water under the same conditions. […]

CC(C)CCCC(C)CCCC(C)CCCC(C)(O)C(O)CO (centres unmarked) [Pure phytanetriol, 3,7,11,15-tetramethyl-1,2,3-hexadecanetriol]
Activity Antiadhesion, Quantitative results: reduction in the decimal logarithm of the mean number of viable Staphylococcus aureus adherent on the reconstructed epidermis relative to water (reconstructed epidermis pretreated 2 hours at 37° C., S. aureus 10^7 microorganisms/ml, incubation 24 hours at 37° C., relative to treatment with water, significant if difference greater than 0.5 log): −1.9 log
Activity Antiadhesion, Qualitative results (term as a function of Log reduction of adhesion after 24 hours relative to the same test using water): Good (between 1.5 and 2 log reduction relative to water)
